# Earlier results in patent US20100240695A1, “[…] PHARMACEUTICAL COMPOSITIONS” (priority 2006, published 2010).
# Conditions: average in a patient population
smiles,measurement,value
Cc1ccc(-c2nc3ccc(C)cn3c2CC(=O)N(C)C)cc1 [zolpidem],plasma level below which residual sedative effects are essentially extinguished,below 20 ng/ml
